These results are taken from US12180084B2, “Cerium (III) carbonate formulations” (THE REGENTS OF THE UNIVERSITY OF CALIFORNIA, priority 2019, dated 2024).

SMILES strings stand for the structures.

Data set [1] concerns RBL-2H3 rat-cell line. The data set is described as follows: Toxicity of mammalian cells to cerium carbonate, microscopy imaging. It counts as cell-based. As to conditions: 10 microliter of 1 mg in 1 mL water dispersion, imaging 20 min after addition. As to the method:
A RBL-2H3 rat-cell line was used from the Berkeley cell-culture facility. […] Prior to microscopy imaging, cells were stored under 5% CO2 in air atmosphere at 37° C. A 10 microliter aliquot of an aqueous dispersion comprising 1 mg of cerium carbonate Ce2(CO3)3·6H2O (micron sized) in 1 mL of deionized water was added to the RBL-2H3 cells in the Petri dish. Microscopy imaging of the cells was performed before and 20 min after addition of the cerium carbonate. […] This viability of the cells appears to be similar both before and after treatment with cerium carbonate Ce2(CO3)3·6H2O (micron sized).

Data set [2] can be described thus: CR dye photodegradation in TiO2-based sunscreen film (Neutrogena Broad Spectrum Mineral Sunscreen SPF 60+). On the procedure: Films on filter paper were fabricated and photoreactor experiments were conducted exactly the same way as described in Example 7.3, using CR dye, except UV irradiation in the photoreactor was conducted for a period of 4 h. These films contained either no UV-protecting agent, 3.0 wt. % of Ce2(CO3)3·6H2O that was synthesized according to Example 3, 3.0 wt. % of commercial Ce2(CO3)3·xH2O (Acros Organics), or 3.0 wt. % of ZnO (NANOBYK-3840). […] Upon adding 3 wt. % of Ce2(CO3)3·6H2O synthesized according to Example 3 to the sunscreen formulation, a decrease in the amount of CR dye photodegradation to 15±1% is observed. […] When cerium carbonate consisting of Ce2(CO3)3·xH2O from Acros Organics is instead used in place of Ce2(CO3)3·6H2O synthesized according to Example 3, photoprotection with 24±2% CR dye photodegradation is observed. The properties of Ce2(CO3)3·xH2O from Acros Organics have been ascribed in Example 4, and these aspects are borne out in conjunction with sunscreen-based formulations here as well. When instead of cerium carbonate ZnO (NANOBYK-3840) is used as a UV-protecting agent, less effect on CR dye photodegradation is observed. This is a similar outcome to observations with MB dye and ZnO-based sunscreen formulation in Example 7.2.
The amount of Ce2(CO3)3·6H2O synthesized according to Example 3 that was incorporated into the TiO2-based sunscreen was increased to 5.0 wt. %, and results are shown in FIGS. 23A-23B and are summarized in Table 4. […] There is a slight diminishing return for adding Ce2(CO3)3·6H2O both here and in Example 7.2, but the effect of increasing Ce2(CO3)3·6H2O on organic-molecule photoprotection is much more pronounced than in the case of ZnO.

Data set [3] is described as follows: CR dye photodegradation in ZnO-based sunscreen film (Neutrogena Sheer Zinc Face Mineral Sunscreen SPF 50). As to conditions: 1.5 wt. % added agent relative to sunscreen weight. On the procedure: Therefore, the extent of photodegradation upon UV irradiation in a photoreactor, using the same setup and ZnO-based sunscreen formulation (Neutrogena Sheer Zinc Face™ Mineral Sunscreen SPF 50) as in Examples 7.1 and 7.2 above, except now using Congo Red (CR) rather than MB dye was investigated. For this investigation, a homogeneous composite mixture was prepared by mixing the ZnO-based (Neutrogena Sheer Zinc Face™ Mineral Sunscreen SPF 50) sunscreen, and CR dye in the similar way as described in Example 7.1 for MB, except now using 10^−3 M CR dye (0.6 mL) instead of 10^−3 M MB dye (0.6 mL). Similarly, a composite sunscreen mixture comprising UV-protecting agent was prepared with synthesized Ce2(CO3)3·6H2O (1.5 wt. % relative to sunscreen weight), following the procedure of Example 7.2. The investigation of CR dye photodegradation in sunscreen films, was also conducted in similar fashion as described in Examples 7.1 for the case of no added UV-protecting agent and 7.2 for the case of added Ce2(CO3)3·6H2O UV-protecting agent, except for the following changes. First, the CR sunscreen films were salmon colored on the same filter paper, and the duration of UV-irradiation in the photoreactor was 5 h instead of 4 h. Second, 2 mL of N,N-dimethylformamide was used for CR dye extraction, instead of 2 mL of ethanol as used for MB dye extraction. […]

Data set [4] in a line: MB dye photodegradation in octacrylene-based sunscreen film (Blue Lizard Kids Australian Sunscreen SPF 30+). As to conditions: 1.5 wt. % added agent. As to the method:
Films on filter paper were fabricated and photoreactor experiments were conducted exactly the same way as described in Example 7.2, using MB dye, except UV irradiation in the photoreactor was conducted for a period of 4 h. These films contained either no UV-protecting agent, or 1.5 wt. % of Ce2(CO3)3·6H2O that was synthesized according to Example 3. The slurry formulation for film fabrication, photoexposure to UV light, and MB dye extraction in ethanol were performed similar to Example 7.2, except Blue Lizard® Kids Australian Sunscreen SPF 30+ was used.
A 30 nm blue-shift of the wavelength of the absorbance maximum was observed (from 654 nm initially to 624 nm after 4 h of UV irradiation in the photoreactor). The degree of photodegradation was calculated by UV-visible spectrophotometry, by assuming the same extinction coefficient at 654 nm before UV irradiation and 624 nm after 4 h of UV irradiation in the photoreactor. Data in FIG. 25A corresponds to 64% MB dye photodegradation.

Regarding `O.O.O.O.O.O.O=C([O-])[O-].O=C([O-])[O-].O=C([O-])[O-].[Ce+3].[Ce+3]` [Ce2(CO3)3·6H2O], in data set [1], the “toxicity to cells (cell shape, viability)” value is listed as “generally non-toxic to the cells”. In addition, the “% of CR dye photodegradation after 4 h of UV irradiation in photoreactor” value in data set [2] (3.0 wt. % added agent relative to sunscreen weight, listed as Ce2(CO3)3·6H2O synthesized according to Example 3) is on record as 15±1%; in data set [2] (3.0 wt. % added agent relative to sunscreen weight, listed as Ce2(CO3)3•6H2O synthesized according to Example 3) it was 15 ± 1%; in data set [2] (5.0 wt. % added agent relative to sunscreen weight), 10 ± 1%. In addition, the “% of CR dye photodegradation after 5 h of UV irradiation in photoreactor” value came out at 9±1% in data set [3] and 9 ± 1% in data set [3] (listed as Ce2(CO3)3•6H2O synthesized according to Example 3). Also, the “MB dye degradation after 4 h of UV irradiation in photoreactor” value in data set [4] turned out to be 45%.
